Test system: Naïve CD8+ T cells
From the text: Naïve CD8+ T cells were isolated from mouse spleen. Cells were activated at a cell density of 10^6 cells/mL using plate-bound αCD3/αCD28+100 U/mL TL2 in RPMI containing 10% FBS.

## O=CO [formate]
1 mM formate in media, from 9.5 μm without formate
  cell size at day 1 post activation: 10.2 μm
1 mM formate, from 78% without formate
  extent of cells showing cell surface activation markers (CD25+, CD69+): 88%
formate, p<0.005
  reduction of NADH concentration: 1.8 fold
Growing CD8+ T cells, from 10% without formate
  dead cells: 5%
